≈ marks a conversion by molar mass, not a printed value. Where two headings read alike, the source gives them in different places.
Legend:
[1] = test system: S. pneumoniae; test: microbe, parasite or virus in culture; type: cell-based; conditions: Streptococcus pneumoniae
[2] = test system: M. catarrhalis; test: microbe, parasite or virus in culture; type: cell-based; conditions: Moraxella catarrhalis
[3] = test system: M. hominis; type: cell-based; conditions: M. hominis (13 isolates)
[4] = test system: pneumococci; test: microbe, parasite or virus in culture; type: cell-based, S. pneumoniae; conditions: Streptococcus pneumoniae, pneumococci, L4 mutations (27)
[5] = test system: S. pyogenes; test: microbe, parasite or virus in culture; type: cell-based; conditions: for MIC: Streptococcus pyogenes
[6] = test system: S. pneumoniae; type: cell-based
[7] = test system: U. urealyticum; test: MIC testing in 10B broth (colour change); type: cell-based; conditions: U. urealyticum (10 isolates)
[8] = test system: N. meningitidis; test: MIC, CLSI broth microdilution, invasive isolates; type: cell-based
Experimental: Example. […] Colonization of the nasopharynx (NP) by NM can lead to invasive meningococcal disease. Chemoprophylaxis is used to eradicate NP colonization and prevent transmission to nonimmune contacts. […] 62 isolates (91.9% blood culture) of NM were collected from 29 medical centers in North and South America and Europe (1997-2008). […] Serological identification was performed for serogroups (SGs) B, C, Y and W135.

[9] = test system: S. pyogenes; type: cell-based; conditions: strain 2132 Macrolide-S
[10] = test system: M. genitalium; type: cell-based; conditions: M. genitalium (5 isolates)
[11] = test system: M. fermentans; type: cell-based; conditions: Mycoplasmopsis fermentans; M. fermentans (15 isolates)
[12] = test system: intraphagocytic L. pneumophila ATCC 33153 (THP-1); type: cell-based
[13] = Neisseria meningitidis, 62 N. meningitidis isolates

CC[C@H]1OC(=O)[C@H](C)[C@@H](O[C@H]2C[C@@](C)(OC)[C@@H](O)[C@H](C)O2)[C@H](C)[C@@H](O[C@@H]2O[C@H](C)C[C@H](N(C)C)[C@H]2O)[C@](C)(O)C[C@@H](C)CN(C)[C@H](C)[C@@H](O)[C@]1(C)O [AZI, azithromycin]
MIC90 [1]: > 16 µg/mL | MIC90 [2]: 0.06 µg/mL (≈ 0.0801 µM) | MIC Range [3]: 0.5 to 4 µg/mL | MIC50 [4]: > 64 µg/mL | MIC90 [4]: > 64 µg/mL | strains with resistant clones / strains tested ([5]; S. pyogenes): 3/4 | MIC ([5]; read-out: Initial MIC, strain 237 Macrolide-R [LA mutation], parent): 4 µg/mL (≈ 5.34 µM) | MIC ([5]; read-out: Initial MIC, strain 2011 Macrolide-R [mef(A)], parent): 4 µg/mL (≈ 5.34 µM) | MIC ([5]; read-out: Initial MIC, strain 2094 Macrolide-R [erm(A)], parent): 4 µg/mL (≈ 5.34 µM) | MIC ([5]; read-out: Initial MIC, strain 2132 Macrolide-S, parent): 0.06 µg/mL (≈ 0.0801 µM) | MIC ([5]; read-out: Initial MIC, strain 2368 Macrolide-R [erm(B)], parent): > 64 µg/mL | MIC ([5]; read-out: MIC of parents of resistant clones, S. pyogenes): 0.06 to 4 µg/mL | MIC ([5]; read-out: Parental MICs, S. pyogenes, 5 strains with varying resistotypes): 0.06 to 4 µg/mL (≈ 0.0801 to 5.34 µM) | MIC ([5]; read-out: Selected Resistance (MIC), strain 237 Macrolide-R [LA mutation], after serial passages in the drug): 8 µg/mL (≈ 10.7 µM) | MIC ([5]; read-out: Selected Resistance (MIC), strain 2011 Macrolide-R [mef(A)], after serial passages in the drug): 32 µg/mL (≈ 42.7 µM) | MIC ([5]; read-out: Selected Resistance (MIC), strain 2094 Macrolide-R [erm(A)], after serial passages in the drug): > 64 µg/mL | MIC ([5]; read-out: Selected Resistance (MIC), strain 2132 Macrolide-S, after serial passages in the drug): 1 µg/mL (≈ 1.34 µM) | days until resistant clones (MIC increase) ([5]; daily passages, max. 50): 5 to 35 days | Retest MIC after 10 Antibioticfree Subcultures ([5]; strain 237 Macrolide-R [LA mutation], clone selected with CEM-101): 4 µg/mL | Retest MIC after 10 Antibioticfree Subcultures ([5]; strain 237 Macrolide-R [LA mutation], clone selected with CLN): 8 µg/mL | Retest MIC after 10 Antibioticfree Subcultures ([5]; strain 2011 Macrolide-R [mef(A)], clone selected with AZI): 16 µg/mL | Retest MIC after 10 Antibioticfree Subcultures ([5]; strain 2094 Macrolide-R [erm(A)], clone selected with AZI): >64 µg/mL | Retest MIC after 10 Antibioticfree Subcultures ([5]; strain 2094 Macrolide-R [erm(A)], clone selected with CEM-101): 4 µg/mL | Retest MIC after 10 Antibioticfree Subcultures ([5]; strain 2094 Macrolide-R [erm(A)], clone selected with CLN): 16 µg/mL | Retest MIC after 10 Antibioticfree Subcultures ([5]; strain 2094 Macrolide-R [erm(A)], clone selected with CLR): >64 µg/mL | Retest MIC after 10 Antibioticfree Subcultures ([5]; strain 2094 Macrolide-R [erm(A)], clone selected with TEL): >64 µg/mL | Retest MIC after 10 Antibioticfree Subcultures ([5]; strain 2132 Macrolide-S, clone selected with AZI): 1 µg/mL | Retest MIC after 10 Antibioticfree Subcultures ([5]; strain 2368 Macrolide-R [erm(B)], clone selected with CEM-101): >64 µg/mL | Retest MIC after 10 Antibioticfree Subcultures ([5]; strain 2368 Macrolide-R [erm(B)], clone selected with TEL): >64 µg/mL | single step mutation frequency ([6]; strain 1077 Macrolide-S, 2 × MIC): 7.2 × 10^−9 | single step mutation frequency ([6]; strain 1077 Macrolide-S, 4 × MIC): <1.9 × 10^−10 | single step mutation frequency ([6]; strain 1077 Macrolide-S, 8 × MIC): <1.9 × 10^−10 | single step mutation frequency ([6]; strain 1635 Macrolide-R [erm(A)], 2 × MIC): <2.0 × 10^−10 | single step mutation frequency ([6]; strain 1635 Macrolide-R [erm(A)], 4 × MIC): <2.0 × 10^−10 | single step mutation frequency ([6]; strain 1635 Macrolide-R [erm(A)], 8 × MIC): <2.0 × 10^−10 | single step mutation frequency ([6]; strain 7127 Macrolide-S [S20N in L4, A105V in L22], 2 × MIC): <2.0 × 10^−10 | single step mutation frequency ([6]; strain 7127 Macrolide-S [S20N in L4, A105V in L22], 4 × MIC): <2.0 × 10^−10 | single step mutation frequency ([6]; strain 7127 Macrolide-S [S20N in L4, A105V in L22], 8 × MIC): <2.0 × 10^−10 | MIC Range [7]: 0.5 to 4 µg/mL | MIC50 ([7]; Ureaplasma urealyticum): 2 µg/mL (≈ 2.67 µM) | MIC90 ([7]; Ureaplasma urealyticum): 4 µg/mL (≈ 5.34 µM) | % Susc. ([8]; CLSI (M100-S19, 2009) criteria): 100.0% | MIC [8, 13]: 0.015 to 0.12 µg/mL (≈ 0.02 to 0.16 µM) | MIC50 [8, 13]: 0.06 µg/mL (≈ 0.0801 µM) | MIC90 [8, 13]: 0.12 µg/mL (≈ 0.16 µM) | single step mutation frequency ([9]; 2 × MIC): <1.0 × 10^−10 | single step mutation frequency ([9]; 4 × MIC): <1.0 × 10^−10 | single step mutation frequency ([9]; 8 × MIC): <1.0 × 10^−10 | MIC Range [10]: ≦0.000032-0.005 μg/mL | MIC50 [11]: 0.5 µg/mL (≈ 0.668 µM) | MIC90 [11]: 0.5 µg/mL (≈ 0.668 µM) | Cs ([12]; L. pneumophila ATCC 33153, 48 h): 181 ×MIC | Cs, static concentration ([12]; intracellular L. pneumophila ATCC 33153): 2.90 mg/L

Source: US9901592B2 (priority 2008, dated 2018)
